Like-named read-outs stand apart in the source and are kept apart here.
Tests used:
Format in all cases: cell-based, human
HTT mRNA = assay: RT-qPCR splicing assay, HTT canonical junction (CJ) and alternative junction (AJ) mRNA; conditions: Homo sapiens; for AC50: increase in HTT alternative junction (AJ) mRNA, read-out: HTT AJ AC50
How it was run: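 24 h treatment, 37 °C/5% CO2; A673 or K562; 11-pt 3-fold series, top 10 uM final; DMSO ≤0.25%. Cell lysis with DNase I, then 1-step RT-qPCR. Housekeeping normalization: PPIA (A673), GAPDH or GUSB (K562).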

Target C = assay: HiBiT protein abundance assay, Target C (Promega Nano-Glo HiBiT Lytic Detection System, knock-in K562 cell line); conditions: Homo sapiens, K562, 24 h, HiBiT K562 cell line, 24 hours, top dose 10 μM; read-out: Effect on protein abundance, Target C (IC50 category)
How it was run: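 Knock-in K562 cells carrying HiBiT-tagged Target C, 10,000 per well, treated 24 h at 37 °C with 10-point threefold dilutions (top 10 μM final, ≤0.25% DMSO). Lytic HiBiT luminescence read; response normalised to unmodified K562 and DMSO controls, four-parameter fit interpolated at 50% for IC50.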

SMN2 mRNA = assay: RT-qPCR splicing assay, SMN2 canonical junction (CJ) mRNA; conditions: Homo sapiens; Table 5 panel; canonical junction qPCR; compound concentration having 50% response in CJ decrease; read-out: SMN2 IC50 (decrease in CJ mRNA levels)
How it was run: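 Exposure: 24 h, 37 °C, 11-point 3-fold dilutions from 10 uM final, DMSO at or below 0.25%, in A673 or K562 cells. Detection: cell-lysate RT-qPCR of canonical junction mRNA relative to GAPDH, GUSB or PPIA.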

[1] = decrease in HTT canonical junction (CJ) mRNA, RT-qPCR, read-out: HTT CJ IC50
[2] = Table 5 panel, canonical junction qPCR, compound concentration having 50% response in CJ decrease, read-out: HTT IC50 (decrease in CJ mRNA levels)

Row | Structure (SMILES) | IC50 (HTT mRNA; [1]) | AC50 (HTT mRNA; RT-qPCR) | IC50 (HTT mRNA; [2]) | IC50 (Target C) | IC50 (SMN2 mRNA)
1 | CCN1CCC(N2CCc3cc(-c4cc(C)c5nc(C)cn5n4)ccc3C2=O)CC1 [Compound 270] | 1 to 10 µM | 1 to 10 µM | 1 to 10 µM | > 10 µM | 0.1 to 1 µM
2 | Cc1cn2nc(-c3ccc4c(=O)n(C5CCNCC5)cnc4c3)nc2c(C)n1 [Compound 287, 7-{6,8-dimethyl-[1,2,4]triazolo[1,5-a]pyrazin-2-yl}-3-(piperidin-4-yl)quinazolin-4-one] | 0.1 to 1 µM | 0.1 to 1 µM | 0.1 to 1 µM | 0.1 to 1 µM | < 0.1 µM
3 | Cc1cn2cc(-c3cc(F)c4c(=O)n([C@H]5CNCC[C@@H]5O)cnc4c3)cc(F)c2n1 [Compound 348, 5-fluoro-7-{8-fluoro-2-methylimidazo[1,2-a]pyridin-6-yl}-3-[(3S,4S)-4-hydroxypiperidin-3-yl]quinazolin-4-one] | > 10 µM | > 10 µM | > 10 µM | > 10 µM | > 10 µM
4 | Cc1cn2cc(-c3ccc4c(=O)n(C5CCNCC5)cnc4c3)ncc2n1 [Compound 297] | 1 to 10 µM | 1 to 10 µM | 1 to 10 µM | 1 to 10 µM | < 0.1 µM
5 | CC[C@@H]1C[C@H](n2ncc3cc(-c4cc(C)c5nc(C)cn5n4)ccc3c2=O)CCN1 [Compound 304] | 1 to 10 µM | 1 to 10 µM | 0.1 to 1 µM | 0.1 to 1 µM | < 0.1 µM
6 | Cc1cn2cc(-c3cc(F)c4c(=O)n([C@H]5CCNC[C@H]5F)cnc4c3)cc(F)c2n1 [Compound 338] | 1 to 10 µM | 0.1 to 1 µM | 0.1 to 1 µM | 1 to 10 µM | < 0.1 µM
7 | Cc1cn2nc(-c3ccc4c(=O)n([C@@H]5CCNC6(CC6)C5)cnc4c3)cc(C)c2n1 [Compound 350, 3-[(7R)-4-azaspiro[2.5]octan-7-yl]-7-{2,8-dimethylimidazo[1,2-b]pyridazin-6-yl}quinazolin-4-one] | < 0.1 µM | < 0.1 µM | < 0.1 µM | < 0.1 µM | < 0.1 µM
8 | Cc1cn2nc(-c3ccc4c(c3)CCN(C3CCNC(C)(C)C3)C4=O)cc(C)c2n1 (centres unmarked) [Compound 267] | 0.1 to 1 µM | 1 to 10 µM | 1 to 10 µM | 1 to 10 µM | < 0.1 µM
9 | Cc1cn2cc(-c3cc(F)c4c(=O)n([C@H]5CCNC[C@@H]5O)cnc4c3)cc(F)c2n1 [Compound 347, 5-fluoro-7-{8-fluoro-2-methylimidazo[1,2-a]pyridin-6-yl}-3-[(3S,4S)-3-hydroxypiperidin-4-yl]quinazolin-4-one] | > 10 µM | > 10 µM | > 10 µM | > 10 µM | > 10 µM
10 | Cc1cn2nc(-c3ccc4c(=O)n(C5CCN(C)C5)ncc4c3)cc(C)c2n1 (centres unmarked) [Compound 271] | 1 to 10 µM | 1 to 10 µM | 1 to 10 µM | 1 to 10 µM | 0.1 to 1 µM
11 | Cc1cn2cc(-c3ccc4c(=O)n(C5CCNCC5)cnc4c3)cc(C)c2n1 [Compound 292] | 0.1 to 1 µM | 0.1 to 1 µM | 0.1 to 1 µM | 1 to 10 µM | < 0.1 µM
12 | Cc1cn2nc(-c3ccc4c(=O)n(C5CCNC6(CC6)C5)ncc4c3)cc(C)c2n1 (centres unmarked) [Compound 274] | < 0.1 µM | < 0.1 µM | < 0.1 µM | < 0.1 µM | < 0.1 µM
13 | CN1CCC(n2cnc3cc(-c4cn[nH]c4)ccc3c2=O)CC1 [Compound 299] | > 10 µM | > 10 µM | > 10 µM | > 10 µM | > 10 µM
14 | Cc1cn2nc(-c3ccc4c(=O)n([C@@H]5CCN(C)[C@H](C)C5)ncc4c3)cc(C)c2n1 [Compound 277] | 0.1 to 1 µM | 0.1 to 1 µM | 0.1 to 1 µM | 0.1 to 1 µM | < 0.1 µM
15 | Cc1cc(-c2cc(F)c3c(=O)n(C4CCNC5(CC5)C4)cnc3c2)nc2cn(C)nc12 (centres unmarked) [Compound 361, 3-{4-azaspiro[2.5]octan-7-yl}-7-{2,7-dimethylpyrazolo[4,3-b]pyridin-5-yl}-5-fluoroquinazolin-4-one] | < 0.1 µM | < 0.1 µM | < 0.1 µM | < 0.1 µM | < 0.1 µM
16 | Cc1cn2cc(-c3ccc4c(=O)n(C5CCNCC5)cnc4c3)nc2c(C)n1 [Compound 286] | 1 to 10 µM | 1 to 10 µM | 1 to 10 µM | 1 to 10 µM | 0.1 to 1 µM
